Results as given in the NIST ThermoML archive (doi:10.1016/j.jct.2013.11.027).

What was measured:
[1] = xn = mol fraction of the nth substance listed; details: 101 kPa, Liquid; for speed of sound: Sing-around technique in a fixed-path interferometer; for mass density: Vibrating tube method
[2] = refractive index (Na D-line) (dimensionless); xn = mol fraction of the nth substance listed; details: 101 kPa, Liquid, Standard Abbe refractometry

CCCCCCCC[n+]1ccn(C)c1.F[B-](F)(F)F [1-methyl-3-octylimidazolium tetrafluoroborate] + C1COCCO1
Details	mass density, 298.15 K [kg/m3]	mass density, 308.15 K [kg/m3]	mass density, 318.15 K [kg/m3]	refractive index, 298.15 K	refractive index, 308.15 K	refractive index, 318.15 K	speed of sound, 298.15 K [m/s]	speed of sound, 308.15 K [m/s]	speed of sound, 318.15 K [m/s]
[1], x1 = 0.0859	1049.95	1040.08	1030.18	–	–	–	1380.8	1341.1	1301.8
[1], x1 = 0.192	1064.93	1055.92	1047.49	–	–	–	1414.2	1378.1	1343.1
[1], x1 = 0.2914	1074.44	1066.14	1057.87	–	–	–	1436.8	1403.6	1370.9
[1], x1 = 0.3963	1080.96	1073.08	1065.23	–	–	–	1451.6	1420.6	1390
[1], x1 = 0.4955	1085.46	1077.85	1070.11	–	–	–	1460.4	1430.9	1401.8
[1], x1 = 0.5947	1088.93	1081.57	1074.25	–	–	–	1466.5	1438	1410.1
[1], x1 = 0.69	1091.4	1084.18	1076.98	–	–	–	1469	1440.8	1414.8
[1], x1 = 0.7938	1093.66	1086.61	1079.53	–	–	–	1475.1	1447.9	1421.7
[1], x1 = 0.8893	1095.2	1088.29	1081.42	–	–	–	1477.8	1450.9	1425.1
[1], x1 = 1	1097.61	1090.9	1084.17	–	–	–	1481.1	1453.9	1428.2
[2], x1 = 0.0859	–	–	–	1.42308	1.41854	1.41465	–	–	–
[2], x1 = 0.192	–	–	–	1.42601	1.42173	1.41833	–	–	–
[2], x1 = 0.2914	–	–	–	1.42812	1.42412	1.42107	–	–	–
[2], x1 = 0.3963	–	–	–	1.42935	1.42549	1.42264	–	–	–
[2], x1 = 0.4955	–	–	–	1.43039	1.42664	1.42387	–	–	–
[2], x1 = 0.5947	–	–	–	1.43124	1.42746	1.42483	–	–	–
[2], x1 = 0.69	–	–	–	1.43181	1.42809	1.42548	–	–	–
[2], x1 = 0.7938	–	–	–	1.43221	1.42865	1.42605	–	–	–
[2], x1 = 0.8893	–	–	–	1.43262	1.42907	1.42628	–	–	–
[2], x1 = 1	–	–	–	1.43296	1.42939	1.42684	–	–	–
